Patent US6689936B1, “Method for evaluating a compound for its effect on skin” (The General Hospital Corp., priority 1997, dated 2004)

Key:
[1] = tested on: human VEGF promoter driven GFP reporter; experiment: Direct confocal detection of GFP induction in intact skin of living hairless VEGF-GFP transgenic mice; type: in vivo; conditions: TPA applied to back skin of anaesthetized hairless VEGF-GFP mouse, after 12hrs, compared with acetone on the same individual
Protocol: To examine whole intact skin on living transgenic mouse with confocal microscope, hairless VEGF-GFP transgenic mice were anaesthetized with avertin by intraperitoneal injection. They were placed directly on the petri dish with dorsal position. TPA or acetone treatment was performed on the back skin same as described above marking treated area with an ink to ease the orientation of the skin. Sections or intact skin of the mice were analyzed using Leica DM IRBE inverted microscope and Leica TCS NT4D confocal microscope system with band pass filter 530/30 nm, detecting emission at wavelengths between 515-545 nm.
To test whether the induction of GFP is directly detected in the skin of a living VEGF-GFP transgenic mouse, acetone or TPA applied skin of the transgenic hairless mouse (same individual) was directly examined by confocal imaging under anaesthetized condition. […] X-Z confocal imaging confirmed that this signal was within the basal layer of the epidermis.

[2] = tested on: human VEGF promoter driven GFP reporter; experiment: Induction of epidermal GFP by topical TPA in VEGF-GFP transgenic mouse skin (fluorescence microscopy of skin biopsy sections); type: in vivo; conditions: single dose of 5 μg TPA in acetone, topical on back skin, biopsy after 12 hours; acetone alone showed only basal levels
Protocol: Tissue preparation for GFP detection and epimicroscopic observation solutions washed out or diffused GFP-derived fluorescence from the site of GFP expression. Ultimately, a freshly dissected, unfixed tissue block, was directly cut into 12 μm thick frozen sections using a cryostat. Epifluorescent microscopic observation was performed immediately after sectioning, without mounting medium or extended slide storage, using FITC/TRITC double excitation and an emission filter Chroma, *VT) to distinguish the GFP-derived fluorescent signal from tissue autofluorescence.
For induction of VEGF mRNA by TPA, a single dose of 5 μg TPA in acetone was topically applied to back skin of transgenic mice and skin biopsy samples were collected after 12 hours.
Induction of epidermal GFP by phorbolester application was also examined. […] This signal seemed to localize to the basoplateral surface of the epithelium rather than in either the keratinocyt cytosol or nucleus.

VEGF = conditions: topical application of phorbolesters; cited from earlier work

## CCCCCCCCCCCCCC(=O)O[C@@H]1[C@@H](C)[C@@]2(O)[C@@H](C=C(CO)C[C@]3(O)C(=O)C(C)=C[C@@H]23)[C@H]2C(C)(C)[C@]12OC(C)=O [TPA]
[1]
  GFP fluorescence positive area in living epidermis (confocal imaging): increase of fluorescence positive area
[2]
  GFP fluorescent signal in epidermis of transgenic skin: Accumulation of fluorescent signal was observed
VEGF
  expression of VEGF in epidermal keratinocytes: up-regulated
